As usually defined, the IC50 is the concentration that inhibits the measured activity by half.

“Also recorded” adds a separate entry of the source. Read-outs that look alike come from different tables or passages of the source.

In data set [1] the test system is L1210 (ATCC CCL-219) mouse lymphocytic leukemia cells. The experiment in a line: Cell growth inhibition assay (phosphatase readout). The data set is classed as cell-based. The procedure: Compounds were tested for their cell growth inhibition of L1210 (ATCC CCL-219) mouse lymphocytic leukemia cells. A population of cells (>1×10^6 cells/mL as determined with a hemocytometer) was diluted with an appropriate amount of Dulbecco-modified Eagle Medium (DMEM, Gibco) containing 10% fetal bovine serum (FBS, Gibco) to a final concentration of 30,000 cells/mL. To each well of a 96-well plate (Corning® Costar®), 100 μL of the cell-media solution was added with a multichannel pipette. The cultures were incubated at 37° C. in an atmosphere of 5% CO2 and 95% humidified air for 24 hours. The test compounds were added to the plate as follows: test substances were diluted in DMSO to a concentration of 1 mM and 10-fold serial dilutions were performed on a separate 96-well plate. Fresh culture medium (100 μL) was added to each well of cells to constitute 200 μL of medium per well followed by 2 μL of each test agent. Compounds were tested in duplicate (≧2 times) at six concentrations between 0-100 nM or 0-1000 nM. Following addition, cultures were incubated for an additional 72 hours.
A phosphatase assay was used to establish the IC50 values as follows: the media in each cell was removed and 100 μL of phosphatase solution (100 mg phosphatase substrate in 30 mL 0.1 M NaOAc, pH 5.5, 0.1% Triton® X-100 buffer) was added to each well. The plates were incubated at 37° C. for 5 minutes. After the given incubation time, 50 μL of 0.1 N NaOH was added to each well and the absorption at 405 nm was determined using a 96 well plate reader. As the absorption is directly proportional to the number of living cells, the IC50 values were calculated and the reported values represent of the average of ≧4 determinations (SD±10%).

The nature of data set [2]: Stability to basic conditions (NaHCO3). To be noted: 23° C. The data set is classed as physicochemical.
The nature of a further data set: physchem. The conditions noted are these: buffer.
In another data set the test system is w794 DNA. The experiment in a line: DNA alkylation studies, cell-free (thermally induced strand cleavage, PAGE autoradiography). The data set is classed as biochemical. The conditions noted are these: for DNA alkylation: no deliberate activation. The protocol:
DNA-agent incubation at 23° C. for 2 hours (h), removal of unbound agent by EtOH precipitation, and 30 minute thermolysis (100° C.) followed by 8% denaturing PAGE and autoradiography. Lane 1, control DNA; lanes 2-5, Sanger G, C, A, and T sequencing reactions; lane 6, Compound (+)-4 (1×10^−5 M); lane 7, Compound (+)-7 (1×10^−5 M); lanes 8-9, Compound (+)-7 (1×10^−5 M) incubated at 37° C. with 1 M L-glutathione for 12 hours and 24 hours.
DNA-agent incubation at 23° C. for 2 hours (h), removal of unbound agent by EtOH precipitation, and 30 minutes thermolysis (100° C.) followed by 8% denaturing PAGE and autoradiography.
Lane 1, control DNA; lanes 2-5, Sanger G, C, A, and T sequencing reactions; lanes 6-8, Compound (+)-4 (1×10^−4 to 1×10^−6 M); lanes 9-11, Compound (+)-6 (1×10^−2 to 1×10^−4 M).
Lane 1, control DNA; lanes 2-5, Sanger G, C, A, and T sequencing reactions; lanes 6-11, Compound (+)-4 (1×10^−4M, t=2, 4, 6, 8, 24, 48 hours); lanes 12-15, Compound (+)-6 (1×10^−2M, t=2, 4, 6, 8 hours).
Lane 1, control DNA; lanes 2-5, Sanger G, C, A, and T sequencing reactions; lane 6, Compound (+)-4 (1×10^−4 M); lanes 7-9, Compound (±)-19 (1×10^−3 to 1×10^−5 M).
See Boger et al., Tetrahedron 1991, 47:2661-2682 for full details of the DNA alkylation assay. The DNA alkylation reactions were conducted at […] with 5′-^32P-end-labeled w794 DNA, which contains a single major alkylation site for the natural products.

The test system of data set [3] is L1210 murine leukemia cells. Briefly: In vivo antitumor activity, L1210 implanted ip in B6D2F1 mice. Also on record: species or system mouse. The protocol:
[Wolfe et al., J. Med. Chem. 2012, 55:5878-5886.] Therefore, the preliminary evaluation of the in vivo antitumor activity of the cyclic N—O pro-drugs was assessed with Compound (+)-6 and was conducted alongside seco-CBI-indole2 (Compound 4) in an antitumor model consisting of L1210 murine leukemia cells implanted ip in B6D2F1 mice traditionally used to initially compare new duocarmycin derivatives (Table 3, below).
B6D2F1 mice were injected intraperitoneally (i.p.) with syngeneic L1210 cells (1×10^6) on day 0. Ten mice were randomly assigned to control vehicle or treatment groups for Compounds (+)-4 and (+)-6 at doses of 60, 100, 250, and 500 μg/kg/inj for Compounds (+)-4 or 60, 200, 500, 1000, and 2500 μg/kg/inj for Compounds (+)-6. Compounds (+)-4 and (+)-6 were formulated in 100% DMSO. Both compounds were injected i.p. on days 1, 5, and 9. Following injection of tumor cells, animals were monitored daily and weighed two times per week. Percent survival (T/C) for treated and control groups were determined by dividing the total survival days for each treatment group by the total survival days for the control group and multiplying×100. All animal studies were carried out in the animal facilities of The University of Kansas Medical Center with strict adherence to the guidelines of the IACUC Animal Welfare Committee of KUMC (IACUC approval #2009-1837).

[4] abbreviates: Mus musculus, L1210, 72 h, read-out: IC50 L1210 natural, natural enantiomer, 72 hours.
The mark [5] stands for this setting: Mus musculus, L1210, 72 h, read-out: IC50 L1210 unnatural, unnatural enantiomer, 72 hours.
Where [6] appears, read: 500 μg/kg i.p. on days 1, 5 and 9.
Where [7] appears, read: 1000 μg/kg i.p. on days 1, 5 and 9.
[8] abbreviates: 2500 μg/kg i.p. on days 1, 5 and 9.
[9] abbreviates: 60 μg/kg i.p. on days 1, 5 and 9.
Setting [10] is: 100 μg/kg i.p. on days 1, 5 and 9.
Setting [11] is: 250 μg/kg i.p. on days 1, 5 and 9.

As to `CC(C)(C)OC(=O)N1CC2CC23C1=CC(=O)c1ccccc13` (single isomer, unassigned; (+)) [(+)-N—Boc-CBI, reference compound], the IC50 is 80 nM in data set [1] (natural enantiomer, 72 hours, read-out: IC50 L1210 natural) and 900 nM in data set [1] (unnatural enantiomer, 72 hours, read-out: IC50 L1210 unnatural).
For `COc1c(O)c2c(c3cc(C(=O)N4CCc5c4c(O)c(OC)c4[nH]c(C(=O)N6C[C@H]7CC78C6=CC(=O)c6[nH]cc(C)c68)cc54)[nH]c13)CCN2C(N)=O` (stereo partly shown) [Compound 2, CC-1065, reference compound], the IC50 in data set [1] (setting [4]) and in data set [1] (setting [5]) was 0.02 nM throughout.
Consider `CN1Oc2cc3c(c4cccc(c24)C1=O)C(CCl)CN3C(=O)OC(C)(C)C` (stereo not shown) [Compound 12, tert-Butyl 10-(Chloromethyl)-5-methyl-4-oxo-9,10-dihydro-4H-pyrrolo[3′,2′:5,6]naphtho[1,8-de][1,2]oxazine-8(5H)-carboxylate], for which the “time unreactive toward NaHCO3” value in data set [2] (NaHCO3 in THF, MeOH, DMF/H2O) is listed as “more than 5 days”. Besides, the IC50 was 850 nM in data set [1] (setting [4]) and over 1000 nM in data set [1] (setting [5]). The compound further showed a half-life in the data set “physchem” of 24 h.
For `CN1Oc2cc3c(c4cccc(c24)C1=O)[C@H](CCl)CN3C(=O)c1cc2cc(NC(=O)c3cc4ccccc4[nH]3)ccc2[nH]1` [Compound (+)-6, N-(2-(10-(Chloromethyl)-5-methyl-4-oxo-5,8,9,10-tetrahydro-4H-pyrrolo[3′,2′:5,6]naphtho[1,8-de][1,2]oxazine-8-carbonyl)-1H-indol-5-yl)-1H-indole-2-carboxamide], the DNA alkylation result in the data set on w794 DNA is “incapable of alkylating DNA”. For the same compound, the “difference in potency between Compound (+)-6 and Compound (+)-7” value in data set [1] (L1210) came out at 3 fold. Besides, the IC50 in data set [1] (setting [4]) was 0.99 nM; in data set [1] (read-out: IC50 L1210 natural, natural enantiomer, 72 hours), about 1 nM. In addition, the “T/C = Treated/Control (MSP) × 100” value in data set [3] (200 μg/kg i.p. on days 1, 5 and 9) is recorded as 386; in data set [3] (setting [6]), over 1142; in data set [3] (setting [7]), over 1130; in data set [3] (setting [8]) it was over 1500. Moreover, the figures for the “Surviving Mice (live animals after 366 days)” value in data set [3] (setting [6]), in data set [3] (setting [7]) and in data set [3] (setting [8]) were 4/10, 4/10 and 6/10, respectively. Further, the “delayed toxicity in long term survivors” value in data set [3] (366 days (1 year)) is “no evidence of a delayed toxicity”. Further, in data set [3] (i.p. administration, versus free drug), the “tolerance at the injection sites” value is “tolerated at the injection sites of the animals much better than the free drug”. Also, the “dosing permitted over that of the free drug” value in data set [3] (versus free drug) is at least 40 fold. Further, the “in vivo potency relative to the free drug” value in data set [3] (versus free drug) is on record as at most 3 fold.
Consider `O=C(Nc1ccc2[nH]c(C(=O)N3C[C@@H](CCl)c4c3cc3c5c(cccc45)C(=O)NO3)cc2c1)c1cc2ccccc2[nH]1` [Compound (+)-7, N-(2-(10-(Chloromethyl)-4-oxo-5,8,9,10-tetrahydro-4H-pyrrolo[3′,2′:5,6]naphtho[1,8-de][1,2]oxazine-8-carbonyl)-1H-indol-5-yl)-1H-indole-2-carboxamide], for which the “DNA alkylation after thiol activation” value in the data set with w794 DNA (incubated with 1 M L-glutathione at 37° C.) is on record as “results in DNA alkylation; also recorded: slow DNA alkylation reaction”. The DNA alkylation result in the data set on w794 DNA is “No DNA alkylation; also recorded: failed to alkylate DNA”.
Regarding `O=C(Nc1ccc2[nH]c(C(=O)N3C[C@@H](CCl)c4c3cc(O)c3ccccc43)cc2c1)c1cc2ccccc2[nH]1` [Compound 4, seco-CBI-indole2, reference compound], the half-inhibitory concentration (IC50) in data set [1] (Mus musculus, L1210, natural enantiomer, 72 hours, read-out: IC50 L1210 natural) was determined as 0.03 nM; in data set [1] (Mus musculus, L1210, unnatural enantiomer, 72 hours, read-out: IC50 L1210 unnatural) it was 0.9 nM. The “MSP (Mean Survival Period)” value is recorded as over 50 days in data set [3] (setting [9]), 6.4 days in data set [3] (setting [10]), 3.7 days in data set [3] (setting [11]) and 3.0 days in data set [3] (setting [6]). In addition, the “Surviving Mice (live animals after 366 days)” value in data set [3] (setting [9]) is given as 1/10; in data set [3] (setting [10]) it was 0/10; in data set [3] (setting [11]), 0/10; in data set [3] (setting [6]), 0/10. Besides, the “T/C = Treated/Control (MSP) × 100” value in data set [3] (setting [9]) is over 284; in data set [3] (setting [10]), 36; in data set [3] (setting [11]) it was 21; in data set [3] (setting [6]) it was 17.
Turning to `CNC(=O)c1cccc2c3c(cc(O)c12)N(C(=O)c1cc2cc(NC(=O)c4cc5ccccc5[nH]4)ccc2[nH]1)CC3CCl` (racemic) [Compound 19, 3-(5-(1H-Indole-2-carboxamido)-1H-indole-2-carbonyl)-1-(chloromethyl)-5-hydroxy-N-methyl-1,2-dihydrobenzo-[e]indole-6-carboxamide], the DNA alkylation entry with w794 DNA is reported as “alkylate DNA in a manner analogous to Compound (+)-4”. Moreover, the “times less potent than seco-(+)-CBI-indole2” value in data set [1] (L1210, racemic mixture) worked out at 2.5 times. Also, the IC50 in data set [1] (Mus musculus, L1210, 72 h, read-out: IC50 L1210, tested as a racemic mixture, 72 hours) is 0.073 nM.
As to `CC(C)(C)OC(=O)N1CC(CCl)c2c1cc1c3c(cccc23)C(=O)NO1` (stereo not shown) [Compound 15, tert-Butyl 10-(Chloromethyl)-4-oxo-9,10-dihydro-4H-pyrrolo[3′,2′:5,6]naphtho[1,8-de][1,2]oxazine-8(5H)-carboxylate], the half-life is 70 h in data set [2] (NaHCO3 in MeOH, read-out: t1/2 with NaHCO3 (converted)) and 2 h in the data set “physchem”. Besides, the “stability to NaHCO3” value in data set [2] (NaHCO3 in THF/H2O) is reported as “stable”. The concentration for half-maximal inhibition (IC50) is 650 nM in data set [1] (setting [4]) and over 1000 nM in data set [1] (setting [5]).
As for `COC(=O)c1cc2c([nH]1)C(=O)C=C1N(C(=O)c3cc4cc(OC)c(OC)c(OC)c4[nH]3)C[C@H]3CC123` (stereo partly shown) [Compound 1, Duocarmycin SA, reference compound], the results for the IC50 in data set [1] (setting [4]) and in data set [1] (setting [5]) were 0.01 nM and 0.1 nM, respectively.

These data come from US9586974B2, “Cyclic N-acyl O-amino phenol CBI derivative” (THE SCRIPPS RESEARCH LINSTITUTE, priority 2013, dated 2017).
